Laboratory results taken from ChEMBL document CHEMBL1137682, “Synthesis, characterization and structure-activity relationship analysis of novel depsides as potential antibacterials” (2009).
≈ marks a conversion by molar mass, not a printed value.

Columns and labels:
Assay type in all cases: functional
[1] = tested on: Enterococcus faecalis; assay: microbe, parasite or virus in culture; conditions: ATCC 9790, 24 h
[2] = tested on: Bacillus subtilis; assay: Antibacterial activity against Bacillus subtilis ATCC 6633 after 24 hrs by MTT assay; conditions: ATCC 6633, 24 h
[3] = tested on: Staphylococcus aureus; assay: Antibacterial activity against Staphylococcus aureus ATCC 6538 after 24 hrs by MTT assay; conditions: ATCC 6538, 24 h
[4] = tested on: Escherichia coli; assay: Antibacterial activity against Escherichia coli ATCC 35218 after 24 hrs by MTT assay; conditions: ATCC 35218, 24 h
[5] = tested on: Enterobacter cloacae; assay: Antibacterial activity against Enterobacter cloacae ATCC 13047 after 24 hrs by MTT assay; conditions: ATCC 13047, 24 h
[6] = tested on: Pseudomonas aeruginosa; assay: Antibacterial activity against sPseudomonas aeruginosa ATCC 13525 after 24 hrs by MTT assay; conditions: ATCC 13525, 24 h

MIC [1] [µg/mL] | MIC [2] [µg/mL] | MIC [3] [µg/mL] | MIC [4] [µg/mL] | MIC [5] [µg/mL] | MIC [6] [µg/mL] | SMILES
6.25 (≈ 19.8 µM) | 12.5 (≈ 39.5 µM) | 25 (≈ 79 µM) | 25 (≈ 79 µM) | 12.5 (≈ 39.5 µM) | > 50 | CCOC(=O)Cc1ccccc1OC(=O)Cc1ccc(F)cc1
12.5 (≈ 75.2 µM) | 12.5 (≈ 75.2 µM) | 6.25 (≈ 37.6 µM) | 12.5 (≈ 75.2 µM) | 6.25 (≈ 37.6 µM) | 25 (≈ 150 µM) | COC(=O)Cc1ccccc1O
> 50 | 12.5 (≈ 44 µM) | 25 (≈ 87.9 µM) | 3.12 (≈ 11 µM) | 6.25 (≈ 22 µM) | 12.5 (≈ 44 µM) | COC(=O)Cc1ccccc1OC(=O)c1ccc(C)cc1
25 (≈ 139 µM) | 6.25 (≈ 34.7 µM) | 12.5 (≈ 69.4 µM) | 25 (≈ 139 µM) | 12.5 (≈ 69.4 µM) | 12.5 (≈ 69.4 µM) | CCOC(=O)Cc1ccccc1O
12.5 (≈ 41.3 µM) | 6.25 (≈ 20.7 µM) | 12.5 (≈ 41.3 µM) | 25 (≈ 82.7 µM) | 6.25 (≈ 20.7 µM) | 25 (≈ 82.7 µM) | COC(=O)Cc1ccccc1OC(=O)Cc1ccc(F)cc1
25 (≈ 78.4 µM) | 12.5 (≈ 39.2 µM) | 3.12 (≈ 9.8 µM) | 6.25 (≈ 19.6 µM) | 12.5 (≈ 39.2 µM) | > 50 | COC(=O)Cc1ccccc1OC(=O)Cc1ccc(Cl)cc1
6.25 (≈ 17.2 µM) | 6.25 (≈ 17.2 µM) | 6.25 (≈ 17.2 µM) | > 50 | 3.12 (≈ 8.6 µM) | 25 (≈ 68.8 µM) | COC(=O)Cc1ccccc1OC(=O)Cc1ccc(Br)cc1
3.12 (≈ 8.39 µM) | > 50 | 1.56 (≈ 4.19 µM) | 1.56 (≈ 4.19 µM) | 3.12 (≈ 8.39 µM) | 3.12 (≈ 8.39 µM) | CCOc1ccc(CC(=O)Oc2ccccc2CC(=O)OC)cc1OCC
1.56 (≈ 4.95 µM) | 0.78 (≈ 2.47 µM) | 1.56 (≈ 4.95 µM) | 3.12 (≈ 9.91 µM) | 12.5 (≈ 39.6 µM) | 6.25 (≈ 19.8 µM) | COC(=O)Cc1ccccc1OC(=O)c1cccc([N+](=O)[O-])c1
25 (≈ 82 µM) | > 50 | 3.12 (≈ 10.3 µM) | 25 (≈ 82 µM) | > 50 | > 50 | COC(=O)Cc1ccccc1OC(=O)c1ccccc1Cl
> 50 | 25 (≈ 72.6 µM) | > 50 | > 50 | 6.25 (≈ 18.1 µM) | 6.25 (≈ 18.1 µM) | COC(=O)Cc1ccccc1OC(=O)Cc1ccc(OC)c(OC)c1
25 (≈ 68.8 µM) | 1.56 (≈ 4.3 µM) | > 50 | 6.25 (≈ 17.2 µM) | > 50 | 25 (≈ 68.8 µM) | COC(=O)Cc1ccccc1OC(=O)Cc1cccc(Br)c1
12.5 (≈ 41 µM) | 25 (≈ 82 µM) | > 50 | > 50 | 25 (≈ 82 µM) | 25 (≈ 82 µM) | COC(=O)Cc1ccccc1OC(=O)c1ccc(Cl)cc1
> 50 | > 50 | > 50 | 25 (≈ 75.7 µM) | > 50 | 6.25 (≈ 18.9 µM) | COC(=O)Cc1ccccc1OC(=O)c1cc(OC)cc(OC)c1
> 50 | 12.5 (≈ 34.9 µM) | 25 (≈ 69.8 µM) | > 50 | 6.25 (≈ 17.4 µM) | 12.5 (≈ 34.9 µM) | CCOC(=O)Cc1ccccc1OC(=O)Cc1ccc(OC)c(OC)c1
1.56 (≈ 4.04 µM) | 12.5 (≈ 32.3 µM) | 3.12 (≈ 8.09 µM) | 1.56 (≈ 4.04 µM) | 3.12 (≈ 8.09 µM) | 3.12 (≈ 8.09 µM) | CCOC(=O)Cc1ccccc1OC(=O)Cc1ccc(OCC)c(OCC)c1
> 50 | 25 (≈ 83.8 µM) | > 50 | 3.12 (≈ 10.5 µM) | 6.25 (≈ 20.9 µM) | 12.5 (≈ 41.9 µM) | CCOC(=O)Cc1ccccc1OC(=O)c1ccc(C)cc1
1.56 (≈ 4.74 µM) | 0.78 (≈ 2.37 µM) | 3.12 (≈ 9.49 µM) | 3.12 (≈ 9.49 µM) | 6.25 (≈ 19 µM) | 6.25 (≈ 19 µM) | CCOC(=O)Cc1ccccc1OC(=O)c1cccc([N+](=O)[O-])c1
> 50 | 1.56 (≈ 4.14 µM) | > 50 | 6.25 (≈ 16.6 µM) | > 50 | 25 (≈ 66.3 µM) | CCOC(=O)Cc1ccccc1OC(=O)Cc1cccc(Br)c1
12.5 (≈ 38.1 µM) | > 50 | > 50 | 25 (≈ 76.1 µM) | > 50 | 6.25 (≈ 19 µM) | CCOC(=O)Cc1ccccc1OC(=O)Cc1cccc(OC)c1
25 (≈ 72.6 µM) | > 50 | > 50 | > 50 | 25 (≈ 72.6 µM) | 6.25 (≈ 18.1 µM) | CCOC(=O)Cc1ccccc1OC(=O)c1cc(OC)cc(OC)c1
> 50 | 12.5 (≈ 33.1 µM) | 12.5 (≈ 33.1 µM) | > 50 | 3.12 (≈ 8.28 µM) | 25 (≈ 66.3 µM) | CCOC(=O)Cc1ccccc1OC(=O)Cc1ccc(Br)cc1
6.25 (≈ 18.8 µM) | 3.12 (≈ 9.39 µM) | 6.25 (≈ 18.8 µM) | 6.25 (≈ 18.8 µM) | 25 (≈ 75.1 µM) | > 50 | CCOC(=O)Cc1ccccc1OC(=O)Cc1cccc(Cl)c1
> 50 | > 50 | 6.25 (≈ 19.6 µM) | 6.25 (≈ 19.6 µM) | > 50 | 25 (≈ 78.4 µM) | CCOC(=O)Cc1ccccc1OC(=O)c1ccccc1Cl
12.5 (≈ 39.2 µM) | 3.12 (≈ 9.8 µM) | 3.12 (≈ 9.8 µM) | > 50 | 25 (≈ 78.4 µM) | 12.5 (≈ 39.2 µM) | COC(=O)Cc1ccccc1OC(=O)Cc1cccc(Cl)c1
> 50 | > 50 | 25 (≈ 79.5 µM) | > 50 | > 50 | 6.25 (≈ 19.9 µM) | COC(=O)Cc1ccccc1OC(=O)Cc1cccc(OC)c1
12.5 (≈ 37.6 µM) | 6.25 (≈ 18.8 µM) | 6.25 (≈ 18.8 µM) | > 50 | 6.25 (≈ 18.8 µM) | 25 (≈ 75.1 µM) | CCOC(=O)Cc1ccccc1OC(=O)Cc1ccc(Cl)cc1
25 (≈ 78.4 µM) | 25 (≈ 78.4 µM) | > 50 | > 50 | > 50 | > 50 | CCOC(=O)Cc1ccccc1OC(=O)c1ccc(Cl)cc1
3.12 (≈ 6.46 µM) | 0.39 (≈ 0.807 µM) | 1.56 (≈ 3.23 µM) | 3.12 (≈ 6.46 µM) | 1.56 (≈ 3.23 µM) | 3.12 (≈ 6.46 µM) | NC[C@H]1O[C@H](O[C@H]2[C@H](O)[C@@H](O[C@H]3O[C@H](CO)[C@@H](O)[C@H](N)[C@H]3O)[C@H](N)C[C@@H]2N)[C@H](N)[C@@H](O)[C@@H]1O [BEKANAMYCIN]
12.5 (≈ 82.2 µM) | 6.25 (≈ 41.1 µM) | 6.25 (≈ 41.1 µM) | 6.25 (≈ 41.1 µM) | 25 (≈ 164 µM) | 6.25 (≈ 41.1 µM) | COC(=O)c1ccc(O)cc1 [METHYLPARABEN]

SMILES | MIC [1] [µg/mL] | MIC [2] [µg/mL] | MIC [3] [µg/mL] | MIC [4] [µg/mL] | MIC [5] [µg/mL] | MIC [6] [µg/mL]
CC1(C)S[C@@H]2[C@H](NC(=O)Cc3ccccc3)C(=O)N2[C@H]1C(=O)O [PENICILLIN G] | 1.56 (≈ 4.67 µM) | 1.56 (≈ 4.67 µM) | 1.56 (≈ 4.67 µM) | 6.25 (≈ 18.7 µM) | 3.12 (≈ 9.35 µM) | 6.25 (≈ 18.7 µM)
CN(C)[C@@H]1C(O)=C(C(N)=O)C(=O)[C@@]2(O)C(O)=C3C(=O)c4c(O)cccc4[C@@](C)(O)[C@H]3C[C@@H]12 [TETRACYCLINE] | 0.78 (≈ 1.76 µM) | 1.56 (≈ 3.51 µM) | 1.56 (≈ 3.51 µM) | 6.25 (≈ 14.1 µM) | 1.56 (≈ 3.51 µM) | 1.56 (≈ 3.51 µM)
CN[C@H](CC(C)C)C(=O)N[C@H]1C(=O)N[C@@H](CC(N)=O)C(=O)N[C@H]2C(=O)N[C@H]3C(=O)N[C@H](C(=O)N[C@H](C(=O)O)c4cc(O)cc(O)c4-c4cc3ccc4O)[C@H](O)c3ccc(c(Cl)c3)Oc3cc2cc(c3O[C@@H]2O[C@H](CO)[C@@H](O)[C@H](O)[C@H]2O[C@H]2C[C@](C)(N)[C@H](O)[C@H](C)O2)Oc2ccc(cc2Cl)[C@H]1O.Cl [VANCOMYCIN HYDROCHLORIDE] | 1.56 | 0.39 | 0.78 | > 50 | > 50 | > 50
